# Counter-ions that a name gives are not always drawn.
# System: Human umbilical endothelial cells (HUVEC)
# Assay: Inhibition of VEGF165-stimulated HUVEC proliferation (3H-thymidine incorporation)
# Format: cell-based
# Settings: Homo sapiens; HUVEC proliferation stimulated with 5 ng/ml VEGF165 and 10 μg/ml heparin; 76 h incubation + 16 h 3H-thymidine
# Procedure: Human umbilical endothelial cells (HUVEC) were cultivated in IMDM (Gibco BRL), supplemented with 10% foetal calf serum (FBS) (Sigma), 50 μM of β-mercaptoethanol (Fluka), standard antibiotics, 15 μg/ml of endothelial cell growth factor (ECGS, Collaborative Biomedical Products) and 100 μg/ml of heparin (Sigma) on gelatine-coated culture dishes (0.2% gelatine, Sigma) at 37° C., under 5% CO2 in a water-saturated atmosphere.
# In order to investigate the inhibitory activity of the compounds according to the invention the cells were “starved” for 16 hours, i.e. kept in culture medium without growth factors (ECGS+heparin). The cells were detached from the culture dishes using trypsin/EDTA and washed once in serum-containing medium. Then they were seeded out in amounts of 2.5×10^3 cells per well.
# The proliferation of the cells was stimulated with 5 ng/ml of VEGF165 (vascular endothelial growth factor; H. Weich, GBF Braunschweig) and 10 μg/ml of heparin. As a control, 6 wells in each dish were not stimulated.
# The compounds according to the invention were dissolved in 100% dimethylsulphoxide and added to the cultures in various dilutions as triple measurements, the maximum dimethylsulphoxide concentration being 0.3%.
# The cells were incubated for 76 hours at 37° C., then for a further 16 hours ^3H-thymidine (0.1 μCi/well, Amersham) was added in order to determine the DNA synthesis. Then the radioactively labelled cells were immobilised on filter mats and the radioactivity incorporated was measured in a β-counter. In order to determine the inhibitory activity of the compounds according to the invention the mean value of the non-stimulated cells was subtracted from the mean value of the factor-stimulated cells (in the presence or absence of the compounds according to the invention).
# The relative cell proliferation was calculated as a percentage of the control (HUVEC without inhibitor) and the concentration of active substance which inhibits the proliferation of the cells by 50% (IC50) was determined.
row,Compound,IC50
1,"CCN(C)Cc1ccc(N/C(=C2\C(=O)Nc3cc(Cl)ccc32)c2ccc3c(c2)OCO3)cc1 [(c), 3-(Z)-{1-[4-(N-ethyl-N-methyl-aminomethyl)-phenylamino]-1-(3,4-methylenedioxy-phenyl)-methylene}-6-chloro-2-indolinone]",2 nM
2,"CN(C)CCC(=O)N(C)c1ccc(N/C(=C2\C(=O)Nc3cc(F)ccc32)c2ccc3c(c2)OCCO3)cc1 [(d), 3-(Z)-{1-[4-(N-methyl-N-{2-(dimethylamino)-ethyl-carbonyl}-amino)-phenylamino]-1-(3,4-ethylenedioxyphenyl)-methylene}-6-fluoro-2-indolinone]",3 nM
3,"Cn1cnc2cc(/C(Nc3ccc(Cn4cncn4)cc3)=C3/C(=O)Nc4cc(F)ccc43)ccc21 [(e), 3-(Z)-{1-[4-(1,2,4-triazol-1-yl-methyl)-phenylamino]-1-(1-methyl-benzimidazol-5-yl)-methylene}-6-fluoro-2-indolinone]",16 nM
4,"CN(C)Cc1ccc(N/C(=C2\C(=O)Nc3cc(Cl)ccc32)c2ccc3c(c2)OCCO3)cc1 [(g), 3-(Z)-{1-[4-(dimethylaminomethyl)-phenylamino]-1-(3,4-ethylenedioxyphenyl)-methylene}-6-chloro-2-indolinone]",9 nM
5,"CN(C)CCN(c1ccc(N/C(=C2\C(=O)Nc3cc(Cl)ccc32)c2ccc3c(c2)OCCO3)cc1)S(C)(=O)=O [(h), 3-(Z)-{1-(4-[N-methanesulphonyl-N-(2-dimethylaminoethyl)-amino]-phenylamino)-1-(3,4-ethylenedioxyphenyl)-methylene}-6-chloro-2-indolinone]",3 nM
6,"COC(=O)c1ccc2c(c1)NC(=O)/C2=C(\Nc1ccc(CN(C)C)cc1)c1ccc2c(c1)OCCO2 [(i), 3-(Z)-{1-[4-(dimethylaminomethyl)-phenylamino]-1-(3,4-ethylenedioxyphenyl)-methylene}-6-methoxycarbonyl-2-indolinone]",0.5 nM
7,"COC(=O)c1ccc2c(c1)NC(=O)/C2=C(\Nc1ccc(N(C)C(=O)CN2CCN(C)CC2)cc1)c1ccc2c(c1)OCCO2 [(j), 3-(Z)-{1-(4-[N-methyl-N-(4-methylpiperazin-1-yl-methylcarbonyl)-amino]-phenyl-amino)-1-(3,4-ethylenedioxyphenyl)-methylene}-6-methoxycarbonyl-2-indolinone]",0.2 nM
8,"CC(=O)N(CCN(C)C)c1ccc(N/C(=C2\C(=O)Nc3cc(F)ccc32)c2ccc3c(c2)OCCO3)cc1 [(k), 3-(Z)-{1-(4-[N-acetyl-N-(2-dimethylaminoethyl)-amino]-phenylamino)-1-(3,4-ethylenedioxyphenyl)-methylene}-6-fluoro-2-indolinone]",0.7 nM
9,"CC(=O)N(CCCN(C)C)c1ccc(N/C(=C2\C(=O)Nc3cc(Cl)ccc32)c2ccc3c(c2)OCCO3)cc1 [(m), 3-(Z)-{1-(4-[N-acetyl-N-(3-dimethylaminopropyl)-amino]-phenylamino)-1-(3,4-ethylenedioxyphenyl)-methylene}-6-chloro-2-indolinone]",0.3 nM
10,"CCC(=O)N(CCCN(C)C)c1ccc(N/C(=C2\C(=O)Nc3cc(Cl)ccc32)c2ccc3c(c2)OCCO3)cc1 [(n), 3-(Z)-{1-(4-[N-propionyl-N-(3-dimethylaminopropyl)-amino]-phenylamino)-1-(3,4-ethylenedioxyphenyl)-methylene}-6-chloro-2-indolinone]",1 nM
11,"CCC(=O)N(CCN(C)C)c1ccc(N/C(=C2\C(=O)Nc3cc(Cl)ccc32)c2ccc3c(c2)OCCO3)cc1 [(o), 3-(Z)-{1-(4-[N-propionyl-N-(2-dimethylaminoethyl)-amino]-phenylamino)-1-(3,4-ethylenedioxyphenyl)-methylene}-6-chloro-2-indolinone]",1 nM
12,"CC(=O)N(CCN(C)C)c1ccc(N/C(=C2\C(=O)Nc3cc(Cl)ccc32)c2ccc3c(c2)OCCO3)cc1 [(p), 3-(Z)-{1-(4-[N-acetyl-N-(2-dimethylaminoethyl)-amino]-phenylamino)-1-(3,4-ethylenedioxyphenyl)-methylene}-6-chloro-2-indolinone]",2 nM
13,"CN1CCN(Cc2ccc(N/C(=C3\C(=O)Nc4cc(Cl)ccc43)c3ccc4c(c3)OCO4)cc2)CC1 [(q), 3-(Z)-{1-(4-[4-methylpiperazin-1-yl-methyl]-phenylamino)-1-(3,4-methylenedioxy-phenyl)-methylene}-6-chloro-2-indolinone]",2 nM
14,"COC(=O)c1ccc2c(c1)NC(=O)/C2=C(\Nc1ccc(N(CCN(C)C)S(C)(=O)=O)cc1)c1ccc2c(c1)OCCO2 [(r), 3-(Z)-{1-(4-[N-methanesulphonyl-N-(2-dimethylaminoethyl)-amino]-phenylamino)-1-(3,4-ethylenedioxyphenyl)-methylene}-6-methoxycarbonyl-2-indolinone]",0.2 nM
15,"COC(=O)c1ccc2c(c1)NC(=O)/C2=C(\Nc1ccc(CN2CCCC2)cc1)c1ccc2c(c1)OCCO2 [(s), 3-(Z)-{1-(4-[pyrrolidin-1-yl-methyl]-phenylamino)-1-(3,4-ethylenedioxyphenyl)-methylene}-6-methoxycarbonyl-2-indolinone]",0.6 nM
16,"COC(=O)c1ccc2c(c1)NC(=O)/C2=C(\Nc1ccc(N(C)C(=O)CN(C)C)cc1)c1ccc2c(c1)OCCO2 [(t), 3-(Z)-{1-(4-[N-methyl-N-(dimethylaminomethylcarbonyl)-amino]-phenylamino)-1-(3,4-ethylenedioxyphenyl)-methylene}-6-methoxycarbonyl-2-indolinone]",0.6 nM
17,"COC(=O)c1ccc2c(c1)NC(=O)/C2=C(\Nc1ccc(CN(C)C)cc1)c1ccc2c(c1)OCO2 [(w), 3-(Z)-{1-(4-[dimethylamino-methyl]-phenylamino)-1-(3,4-methylenedioxyphenyl)-methylene}-6-methoxycarbonyl-2-indolinone]",0.5 nM
18,"CCN(CC)Cc1ccc(N/C(=C2\C(=O)Nc3cc(C(=O)OC)ccc32)c2ccc3c(c2)OCO3)cc1 [(x), 3-(Z)-{1-(4-[diethylamino-methyl]-phenylamino)-1-(3,4-methylenedioxyphenyl)-methylene}-6-methoxycarbonyl-2-indolinone]",1 nM
19,"CN(C)C(=O)c1ccc(N/C(=C2\C(=O)Nc3cc(F)ccc32)c2ccc3c(c2)ncn3C)cc1 [(y), 3-(Z)-{1-[4-(dimethylaminocarbonyl)-phenylamino]-1-(1-methyl-benzimidazol-5-yl)-methylene}-6-fluoro-2-indolinone]",14 nM
20,"CCC(=O)N(CCCN(C)C)c1ccc(N/C(=C2\C(=O)Nc3cc(F)ccc32)c2ccc3c(c2)OCCO3)cc1 [(z), 3-(Z)-{1-(4-[N-propionyl-N-(3-dimethylaminopropyl)-amino]-phenylamino)-1-(3,4-ethylenedioxyphenyl)-methylene}-6-fluoro-2-indolinone]",0.5 nM

# System: not given
# Assay: not given
# Settings: not given
row,melting point,Compound
1,248 to 250 °C,"CCNCc1ccc(N/C(=C2\C(=O)Nc3cc(Cl)ccc32)c2ccc3c(c2)OCO3)cc1 (as salt: salt) [Example 8.0, 6-chloro-3-(Z)-{1-[4-(ethylaminomethyl)-phenylamino]-1-(3,4-methylenedioxyphenyl)-methylene}-2-indolinone]"
2,226 to 228 °C,"CCNCc1ccc(N/C(=C2\C(=O)Nc3cc(F)ccc32)c2ccc3c(c2)ncn3C)cc1 (as salt: salt) [Example 11, 6-fluoro-3-(Z)-{1-[4-(ethylaminomethyl)-phenylamino]-1-(1-methylbenzimidazol-5-yl)-methylene}-2-indolinone]"
3,204 to 205 °C,"CCC(=O)N(CCCN(C)C)c1ccc(N/C(=C2\C(=O)Nc3ccccc32)c2coc(N(Cc3ccccc3)Cc3ccccc3)n2)cc1 [Example 1.0, 3-(Z)-[1-{4-[N-propionyl-N-(3-dimethylamino-propyl)-amino]-phenylamino}-1-(2-dibenzylamino-4-oxazolyl)-methylene]-2-indolinone]"
4,198 to 199 °C,"CN(C)CC(=O)N(C)c1ccc(N/C(=C2\C(=O)Nc3ccccc32)c2cnccn2)cc1 [Example 2.0, 3-(Z)-{1-[4-(N-dimethylaminomethylcarbonyl-N-methyl-amino)-phenylamino]-1-(2-pyrazinyl)-methylene}-2-indolinone]"
5,274 to 276 °C,"CN(C)CC(=O)N(C)c1ccc(N/C(=C2\C(=O)Nc3cc(Cl)ccc32)c2ccncc2)cc1 [Example 3.0, 6-Chloro-3-(Z)-[1-(4-{N-(dimethylaminomethylcarbonyl)-N-methyl-amino}-phenyl-amino)-1-(4-pyridyl)-methylene]-2-indolinone]"
6,255 to 260 °C,"CN1CCC(N/C(=C2\C(=O)Nc3ccccc32)c2ccoc2)CC1 [Example 6.0, 3-(Z)-[1-(1-methylpiperidin-4-ylamino)-1-(3-furyl)-methylene]-2-indolinone]"
7,172 °C,"CNC(=O)c1ccc2c(c1)NC(=O)/C2=C(\Nc1ccc(CN2CCN(C)CC2)cc1)c1ccc2c(c1)OCCO2 [Example 10.0, 6-methylaminocarbonyl-3-(Z)-{1-[4-(1-methylpiperazin-4-yl-methyl)-phenylamino]-1-(3,4-ethylenedioxyphenyl)-methylene}-2-indolinone]"

# From patent publication US7148249B2, “Indolinones substituted by heterocycles, the preparation thereof and their use as medicaments” (Boehringer Ingelheim Pharma GmbH & Co. KG, priority 2002, dated 2006)
